Measurements as given in article PMC6950245, “Identification and Characterization of ShSPI, a Kazal-Type Elastase Inhibitor from the Venom of Scolopendra Hainanum” (Toxins, 2019).
Where a SMILES comes first, the peptide text is derived from it. Bridges are numbered along the chain shown (N, C = ends).

Key:
[1] = molecular target: T1, porcine pancreatic elastase (PPE) (Sus scrofa, UniProt P00772); parameters: method as in PMID 2049103; conditions: reported; cited from earlier work
T1 construct: purchased Sigma-Aldrich E0127

[2] = molecular target: T2, human neutrophil elastase (HNE) (Homo sapiens, UniProt P08246); experiment: Protease inhibition assay, human neutrophil elastase (chromogenic substrate, Dixon method); format: biochemical
T2 construct: purchased Sigma-Aldrich E8140
T2 sequence (P08246 30-267): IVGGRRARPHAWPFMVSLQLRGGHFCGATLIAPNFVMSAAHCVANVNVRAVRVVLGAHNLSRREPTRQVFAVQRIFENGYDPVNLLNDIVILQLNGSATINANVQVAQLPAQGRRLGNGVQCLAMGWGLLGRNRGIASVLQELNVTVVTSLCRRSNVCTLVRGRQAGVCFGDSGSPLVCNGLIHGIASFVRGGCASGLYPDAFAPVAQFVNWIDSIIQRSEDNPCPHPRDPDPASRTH
Text: (§1) Human neutrophils elastase (HNE, E8140), porcine pancreatic elastase (PPE, E0127), cathepsin G (CG, C4428), human trypsin (T6424), α-chymotrypsin from human pancreas (C8946), and thrombin from human plasma (T4393) were all purchased from Sigma-Aldrich (USA). Factor Xa (FXa, HFXa 1011) and Factor XIIa (FXIIa, HFXIIa 1212a) were from Enzyme Research Laboratories (South Bend, IN, USA). Kallikrein from human plasma (420307) was from Merck Millipore (Billerica, MA, USA).
Substrate for HNE and PPE (MeOSuc-Ala-Ala-Pro-Val-pNA, 324696) was purchased from Merck Millipore (USA). Substrates for CG (Succinyl-Ala-Ala-Pro-Phe-pNA, 573462), trypsin (Nalpha-Benzoyl-L-arginine 4-nitroanilide hydrochloride, B3133), FXa (CH3OCO-D-CHA-Gly-Arg-pNA-AcOH, F3301), chymotrypsin (N-Succinyl-Gly-Gly-Phe-pNA, S1899), thrombin (β-Ala-Gly-Arg-pNA diacetate, T3068), and kallikrein (Z-Phe-Arg 7-amido-4-methylcoumarin hydrochloride, C9521) were purchased from Sigma-Aldrich (USA).
(§2) As mentioned in our previous study, experiments for protease inhibitory activity were assayed in buffer (0.05 M Tris-HCl, pH 7.8) at 37 °C. […] At the end of the incubation, the reaction was initiated by the addition of the exclusive substrate solution and monitored by recording the absorbance at 405 nm every 30 s for 30 min. Enzyme activity in each well was calculated based on the initial slope of the reaction curve, and percentage of the initial slope of the uninhibited reaction was expressed. The inhibition constant Ki value was determined according to the Dixon method.

[3] = molecular target: T1, porcine pancreatic elastase (PPE); experiment: Protease inhibition assay, porcine pancreatic elastase (chromogenic substrate, Dixon method); format: biochemical; conditions: 0.05 M Tris-HCl pH 7.8, 37 °C, 10 min pre-incubation, PPE 1 μg/mL, substrate MeOSuc-Ala-Ala-Pro-Val-pNA 30, 60, 90 μg/mL, absorbance 405 nm
Text: as §1
Substrate for HNE and PPE (MeOSuc-Ala-Ala-Pro-Val-pNA, 324696) was purchased from Merck Millipore (USA). […]
as §2

[4] = molecular target: T1, porcine pancreatic elastase (PPE); experiment: Surface plasmon resonance, ShSPI immobilized, PPE injected; conditions: SPR Biacore 3000, ShSPI on CM5 chip, PPE injected 180 s at 10 μL/min, HBS-P buffer, Langmuir binding fit; read-out: ka, PPE
Procedure: (§3) Sensor chips CM5 (BR100012), 10 mM acetate buffer (BR100350, pH 4.0), amine coupling kit (BR100050), and HBS-P buffer (BR100826, used as running buffer) were all obtained from GE Healthcare Bio-sciences AB (Uppsala, Sweden). Data were collected and analyzed by BIAcore System (Version 3000, GE Healthcare Life Sciences, Pittsburgh, PA, USA) and BIA evaluation software (Version 3.0, GE Healthcare Life Sciences, Pittsburgh, PA, USA).
(§4) Before testing, ShSPI (100 μg/mL in acetate buffer, pH 4.0) was immobilized to the surface of CM5 chip. Following a standard amine coupling chemistry, running buffer was used to reach equilibration. HNE or PPE (doubling dilution) was injected over the immobilized ShSPI at a flow rate of 10 μL/min, and the association rate (ka, M^−1s^−1) was determined. After 3 min, running buffer was applied to the surface, and the dissociation rate (kd, s^−1) was determined over 15 min for PPE and 30 min for HNE, and another 500 μL of running buffer were injected at a flow rate of 20 μL/min to rebalance the chip. The equilibrium association constant (KA, M^−1) and the equilibrium dissociation constant (KD, M) were determined by ka/kd and kd/ka, respectively.

[5] = molecular target: T2, human neutrophil elastase (HNE); experiment: Surface plasmon resonance, ShSPI immobilized, HNE injected; conditions: SPR Biacore 3000, ShSPI on CM5 chip, HNE injected 180 s at 10 μL/min, HBS-P buffer, Langmuir binding fit; read-out: ka, HNE
Procedure: as §3, §4

[6] = Plasma stability, read out by enzyme inhibitory activity; format: in vitro ADME; conditions: lyophilized human plasma resuspended in water, 500 nM, 37 °C, 0-48 h, triplicate samples
Procedure: Lyophilized human plasma (400100, Cayman, Ann Arbor, MI, USA) was resuspended in sterile water according to the instruction, then ShSPI was added to each equivalent volume with a final concentration of 500 nM, and samples were co-incubated at 37 °C for two days. Triplicate samples were collected at selected time points (0, 6, 12, 18, 24, 30, 36, 42, and 48 h) and protease activity was tested as described above.

T1 sequence (P00772 27-266): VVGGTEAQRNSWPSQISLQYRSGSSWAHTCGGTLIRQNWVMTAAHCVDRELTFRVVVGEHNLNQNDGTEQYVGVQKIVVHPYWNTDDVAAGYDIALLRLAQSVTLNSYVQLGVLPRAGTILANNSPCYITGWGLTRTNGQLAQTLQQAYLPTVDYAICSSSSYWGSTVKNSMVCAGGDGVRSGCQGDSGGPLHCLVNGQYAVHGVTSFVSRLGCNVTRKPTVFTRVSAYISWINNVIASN

CC(C)(C)C(=O)Oc1ccc(S(=O)(=O)Nc2ccccc2C(=O)NCC(=O)O)cc1 [sivelestat]
Inhibitory activity to PPE (literature) [1]: little inhibitory activity

CC[C@H](C)[C@@H]1NC(=O)[C@H](C)NC(=O)[C@@H]2CCCN2C(=O)[C@@H]2CSSC[C@H](NC(=O)[C@H](CO)NC(=O)[C@H](CC(N)=O)NC(=O)[C@H](CO)NC(=O)[C@H](Cc3ccc(O)cc3)NC(=O)[C@H](CCSC)NC(=O)[C@H](CCCNC(=N)N)NC(=O)CNC(=O)[C@H](Cc3ccccc3)NC(=O)[C@H](CCC(=O)O)NC(=O)[C@H](CC(=O)O)NC(=O)[C@H](Cc3ccccc3)NC(=O)[C@H](C(C)C)NC(=O)[C@@H]3CCCN3C(=O)[C@H](CCC(N)=O)NC(=O)[C@H](Cc3ccc(O)cc3)NC1=O)C(=O)N[C@@H](CCC(=O)O)C(=O)N[C@@H](CCSC)C(=O)N[C@@H](CCC(N)=O)C(=O)N[C@@H](CCCNC(=N)N)C(=O)N[C@@H](C)C(=O)N[C@@H](CCCNC(=N)N)C(=O)N[C@H](C(=O)N[C@@H](CC(C)C)C(=O)N[C@@H](CCCNC(=N)N)C(=O)NCC(=O)O)CSSC[C@H](N)C(=O)N1CCC[C@H]1C(=O)N[C@@H](CCC(N)=O)C(=O)N[C@@H](C(C)C)C(=O)N2 [ShSPI] (H-CPQVCPAIYQPVFDEFGRMYSNSCEMQRARCLRG-OH; disulfide 1-31, 5-24)
Ki [2]: 12.6 ± 2 nM | Ki [3]: 226 ± 20 nM | kon [4]: 45000 M⁻¹ s⁻¹ | kon [5]: 4500 M⁻¹ s⁻¹ | Stability in human plasma [6]: no significant degradation over 48 h
